Results taken from patent publication US7666985B2, “HLA-A24-restricted cancer antigen peptides” (International Institute of Cancer Immunology, Inc., priority 2002, dated 2010).
“Also recorded” adds a separate entry of the source. Like-named read-outs stand apart in the source and are kept apart here. Square brackets hold non-standard residues; d marks the D form. Ends that are not written are not given here. Abu = CC[C@H](N)C(=O)O

Tests used:
[1] = tested on: Jurkat-A2402/K^b cells pulsed with the peptide; assay: CTL-inducing activity (immunogenicity) in HLA-A2402/K^b transgenic mouse, 51Cr release assay; type: in vivo; conditions: for induction of specific CTLs (cytotoxic activity, % Specific Lysis): Reference 9: transgenic mouse (04-1 line) immunized with known HLA-A24-restricted cancer antigen peptide + helper peptide in IFA; for induction of specific CTLs (cytotoxic activity, % Specific Lysis) / immunogenicity (activity to induce CTLs; cytotoxic activity, % Specific Lysis): peptide-pulsed vs non-pulsed Jurkat-A2402/K^b targets; for immunogenicity (activity to induce CTLs; cytotoxic activity, % Specific Lysis): HLA-A2402/K^b transgenic mice (three per peptide) immunized s.c. with peptide + helper peptide in IFA, splenocytes stimulated in vitro 6 days, E/T ratio of 80
Method: Specifically, HER-2/neu780-788 and helper peptide were adjusted to 40 mg/ml and 20 mg/ml, respectively, in DMSO and diluted with a physiological saline to 2 mg/ml and 1 mg/ml, respectively. They were mixed with an equal amount of Freund's incomplete adjuvant (Wako Pure Chemical Industries, Ltd.) using a glass syringe to prepare a water-in-oil emulsion. The resultant preparation (200 μl) was injected into a transgenic mouse (04-1 line) subcutaneously in the base of the tail for immunization. Seven days after the initiation of experiment, the spleen was removed and grounded on the frosted part of glass slide, and splenocytes were recovered and prepared. A portion of the splenocytes undergone hemolysis treatment with an ACK buffer (0.15 M NH4Cl, 10 mM KHCO3, 0.1 mM EDTA, pH 7.2-7.4) was exposed to X ray radiation (2,000 rad), pulsed with the above-mentioned peptide (100 μg/ml) for 1 hour, and seeded into a 24-well plate at 0.7×10^6/well. Non-radiated, non-peptide-pulsed splenocytes (7×10^6/well) were added together and stimulated again at 37° C. (final concentration of peptide, 1 μg/ml). In vitro stimulation was carried out for 6 days in […] of a culture solution (CTM culture solution) containing 10% FCS, 10 mM HEPES, 20 mM L-glutamine, 1 mM sodium pyruvate, 1 mM MEM nonessential amino acid, 1% MEM vitamin and 55 μM 2-mercaptoethanol in RPMI 1640 medium.
On the other hand, Jurkat-A2402/K^b cells prepared in Reference 8 were labeled with ^51Cr (3.7 MBq/10^6 cells) and pulsed with the peptide above at 100 μg/ml for one hour. The labeling was carried out over 2 hours, and 1 hour after initiation of labeling, peptide was added to make the final concentration 100 μg/ml. Cells that were not pulsed with peptide were prepared as control target cells.
CTL-inducing activity was determined by ^51Cr release assay (J. Immunol., 159:4753, 1997), wherein the previously prepared transgenic mouse splenocyte preparation was added to said Jurkat-A2402/K^b cells as the target cells.
Immunogenicity of each antigen peptide was evaluated using the HLA-A2402/K^b transgenic mouse as constructed in aforementioned References. For the evaluation of each peptide for its immunogenicity, three transgenic mice were immunized with one peptide.
Specifically, each antigen peptide and the helper peptide were adjusted to 40 mg/ml and 20 mg/ml, respectively, in DMSO, and diluted with a physiological saline to 2 mg/ml and 1 mg/ml, respectively. They were then mixed with an equal amount of Freund's incomplete adjuvant (IFA) using a glass syringe to prepare a water-in-oil emulsion. The resultant emulsion (200 μl) was injected into the HLA-A2402/K^b transgenic mouse subcutaneously in the base of the tail for immunization. Seven days after the initiation of experiment, the spleen was removed and grounded on the frosted part of glass slide, and splenocytes were recovered and prepared. A portion of the splenocytes undergone hemolysis treatment with an ACK buffer (0.15 M NH4Cl, 10 mM KHCO3, 0.1 mM EDTA, pH 7.2-7.4) was exposed to X ray radiation (2,000 rad), then pulsed with the above-mentioned peptide (100 μg/ml) for 1 hour, and seeded into a 24-well plate at 7×10^6/well. Simultaneously, non-radiated, non-peptide-pulsed splenocytes (7×10^5/well) were added together and stimulated in vitro at 37° C. for 6 days. The in vitro stimulation was carried out in RPMI1640 medium supplemented with 10% FCS, 10 mM HEPES, 20 mM L-glutamine, 1 mM sodium pyruvate, 1 mM MEM nonessential amino acids, 1% MEM vitamin and 55 μM 2-mercaptoethanol.
Then, the test for cytotoxic activity was conducted according to the conventional manner. Jurkat-A2402/K^b cells (Reference 8), and Jurkat-A2402/K^b cells pulsed with the peptide were used as target cells (T). These cells were labeled with ^51Cr (3.7 MBq/10^6 cells) and pulsed with the peptide at 100 μg/ml for one hour (The labeling was carried out over 2 hours, and 1 hour after the initiation of labeling, the peptide was added).

[2] = tested on: C1R-A*2402 cells pulsed with the natural peptide of SEQ ID NO: 7; conditions: PBMC from HLA-A2402 positive healthy donors stimulated in vitro with 10 μM peptide; E/T ratio of 10, 20 or 40
Method: (§1) Peripheral blood mononuclear cells were separated from healthy donors positive for HLA-A2402, and were placed into wells of a 24-well plate at 4×10^6 cells/well. To the wells, the natural peptide of SEQ ID NO: 7 or the altered peptide of SEQ ID NO: 3 was added at a concentration of 10 μM, and the mixture was incubated for a week in a culture medium comprising 45% RPMI1640, 45% AIV, 10% inactivated human AB serum, 1× nonessential amino acids, 25 ng/ml 2-mercaptoethanol, […] streptomycin, and 50 U/ml penicillin. After the incubation, the cells were adjusted to 2×10^6 cells/well, which were used as responder cells hereafter. On the other hand, peripheral blood mononuclear cells separated from the same healthy donors were incubated together with 10 μM of either of these peptides for 4 hours to accomplish the pulsing with peptide, and then radiated at 30 Gy. The cells were adjusted to 4×10^6 cells/well, which were used as stimulator cells hereafter.
(§2) The responder cells and the stimulator cells thus prepared were mixed together, and the mixture was added with IL-2 at 30 U/ml, and incubated. A similar stimulation of the responder cells with the stimulator cells was conducted three times with an interval of a week. The cytotoxic activity in those cells thus obtained was determined by ^51Cr release assay wherein the cytotoxic activity was determined by reacting the C1R-A*2402 cells positive for an HLA-A24 (Int. J. Cancer, 81, p 387, 1999) labeled with ^51Cr that were pulsed with the natural peptide of SEQ ID NO: 7 as target cells (T), and the cells stimulated with the natural peptide of SEQ ID NO: 7 or the altered peptide of SEQ ID NO: 3 as described above (effector cells)(E) at an E/T ratio of 10, 20 or 40. […] Further, a lung cancer cell line positive for WT1 and positive for an HLA-A24, RERF-LC-AI cells; a lung cancer cell line positive for WT1 and negative for an HLA-A2402, 11-18 cells; or a lung cancer cell line negative for WT1 and positive for an HLA-A24, 11-18 cells were used as target cells to determine the cytotoxic activities of the effector cells described above in a similar manner by ^51Cr release assay.

[3] = tested on: RERF-LC-AI cells; conditions: PBMC effector cells stimulated with peptide, targets RERF-LC-AI (WT1+, HLA-A24+) versus WT1+/HLA-A2402- and WT1-/HLA-A24+ lung cancer lines (LK87, 11-18)
Method: as §1, §2

[4] = tested on: Jurkat-A2402/K^b cells pulsed with the natural or non-substituted peptide; conditions: for cross-reactivity of effector cells induced by the substituted peptide to the non-substituted peptide (cytotoxic activity): mice immunized with peptide M or N, targets pulsed with peptide M or N, with peptide H, or without any peptide
Method: Cross-reactivity of the effector cells induced by the altered peptide to the natural peptide was tested. Effector cells induced by immunizing the mice with the altered form: peptide H (E) and target cells of the Jurkat-A2402/K^b cells pulsed with the natural form: peptide C (T) were combined and reacted at an E/T ratio of 80, and the cytotoxic activity was determined by ^51Cr release assay.
Cross-reactivity of the effector cells induced by the substituted peptide to the non-substituted peptide was tested. To effector cells induced by immunizing the mice with peptide M or N (E), target cells of the Jurkat-A2402/K^b cells pulsed with peptide M or N, with peptide H, or without any peptide (T) were reacted, and the cytotoxic activities of the effector cells were determined by ^51Cr release assay.

CEA268-277: known HLA-A24-restricted cancer antigen peptide derived from CEA [reference compound]
induction of specific CTLs (cytotoxic activity, % Specific Lysis) [1]: induction of specific CTLs by stimulation with these known HLA-A24-resticted cancer antigen peptides was observed; also recorded: specific CTLs were induced

MAGE-3195-203: known HLA-A24-restricted cancer antigen peptide derived from MAGE-3 [reference compound]
induction of specific CTLs (cytotoxic activity, % Specific Lysis) [1]: induction of specific CTLs by stimulation with these known HLA-A24-resticted cancer antigen peptides was observed; also recorded: specific CTLs were induced

AYLPAVPSL [peptide I, altered peptide K, position 2 altered into tyrosine]
immunogenicity (activity to induce CTLs; cytotoxic activity, % Specific Lysis) [1]: have a high immunogenicity; also recorded: specific CTLs were induced

RVPGVAPTL [peptide B]
CTL-inducing activity (cytotoxic activity) [2]: CTLs were induced | cytotoxic activity of effector cells on lung cancer cell lines [3]: CTLs were induced | cytotoxic activity of effector cells on lung cancer cell lines ([3]; listed as SEQ ID NO: 7): specifically injured only the RERF-LC-AI cells

RYPSAQKKF [peptide N]
cross-reactivity of effector cells induced by the substituted peptide to the non-substituted peptide (cytotoxic activity) [4]: exhibited a cytotoxic activity against all of the cells pulsed with the substituted peptides

RYPSCQKKF [peptide H]
cross-reactivity of effector cells induced by the altered peptide to the natural peptide (cytotoxic activity) ([4]; mice immunized with peptide H, targets pulsed with peptide H or natural peptide C, E/T ratio of 80): exhibited a cytotoxic activity against both cells pulsed with the altered and natural forms

CEA652-660: known HLA-A24-restricted cancer antigen peptide derived from CEA [reference compound]
induction of specific CTLs (cytotoxic activity, % Specific Lysis) [1]: induction of specific CTLs by stimulation with these known HLA-A24-resticted cancer antigen peptides was observed; also recorded: specific CTLs were induced

NQMNLGATL [peptide L, natural peptide, positions 239 to 247 of human WT1]
immunogenicity (activity to induce CTLs; cytotoxic activity, % Specific Lysis) [1]: have no immunogenicity; also recorded: no specific CTL was induced

QYRIHTHGVF [peptide D, natural peptide, positions 285 to 294 of human WT1]
immunogenicity (activity to induce CTLs; cytotoxic activity, % Specific Lysis) [1]: no specific CTL was induced

Arg-Tyr-Pro-Ser-Abu-Gln-Lys-Lys-Phe (RYPS[Abu]QKKF) [peptide O, peptide H with cysteine at position 5 substituted with α-aminobutyric acid]
immunogenicity (cytotoxic activity, % Specific Lysis) ([1]; Example 5: HLA-A24 expressing transgenic mouse immunized with peptide, effector and target cells mixed at various E/T ratios): immunogenicity equivalent to the non-substituted peptide, peptide H; also recorded: specific CTLs were induced

RYFPNAPYL [peptide F]
immunogenicity (activity to induce CTLs; cytotoxic activity, % Specific Lysis) [1]: have a high immunogenicity; also recorded: specific CTLs were induced

RWPSCQKKF [peptide C, natural peptide, positions 417 to 425 of human WT1]
immunogenicity (activity to induce CTLs; cytotoxic activity, % Specific Lysis) [1]: have no immunogenicity; also recorded: no specific CTL was induced

RYPSSQKKF [peptide M]
cross-reactivity of effector cells induced by the substituted peptide to the non-substituted peptide (cytotoxic activity) [4]: exhibited a cytotoxic activity against all of the cells pulsed with the substituted peptides

AYPGCNKRYF [peptide E, natural peptide, positions 326 to 335 of human WT1]
immunogenicity (activity to induce CTLs; cytotoxic activity, % Specific Lysis) [1]: no specific CTL was induced

HER-2/neu780-788: HLA-A24-restriced peptide derived from human tumor antigen HER-2/neu (PYVSRLLGI) [reference compound]
induction of specific CTLs (cytotoxic activity, % Specific Lysis) [1]: induction of specific CTLs by stimulation with HER-2/neu780-788 was observed | induction of specific CTLs (cytotoxic activity, % Specific Lysis) ([1]; listed as HER2/neu780-788): specific CTLs were induced

ALLPAVPSL [peptide K, natural peptide, positions 10 to 18 of human WT1]
immunogenicity (activity to induce CTLs; cytotoxic activity, % Specific Lysis) [1]: have no immunogenicity; also recorded: no specific CTL was induced

NYMNLGATL [peptide J, altered peptide L, position 2 altered into tyrosine]
immunogenicity (activity to induce CTLs; cytotoxic activity, % Specific Lysis) [1]: have a high immunogenicity; also recorded: specific CTLs were induced
